From PubChem BioAssay (NCI) come the findings set out here.

What all share (experiment): NCI-60 cell line screen, 48 h
In test [1] the test system is HOP-62 NSCLC.
Test [2] concerns MDA-MB-231 breast.
Test [3] concerns NCI/ADR-RES ovarian.
The subject of test [4] is OVCAR-5 ovarian.
In test [5] the test system is RPMI-8226 leukemia.
Test [6] deals with SF-539 CNS.
Test [7] deals with SK-MEL-2 melanoma.
Test [8] has as its system SK-MEL-28 melanoma.
The subject of test [9] is SK-MEL-5 melanoma.
For test [10], the system named is SR leukemia.

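All cell lines were grown in 96-well plates and treated with compound for 48 hours. GI50 is the concentration that inhibits growth by half. TGI is the concentration that stops growth completely.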

Turning to `O=P(CCCCP(=O)(c1ccccc1)c1ccccc1)(c1ccccc1)c1ccccc1.[Cl][Sn]([Cl])([c]1ccccc1)[c]1ccccc1`, the GI50 is 0.462 µM in [1]; 0.626 µM in test [2]; 2.96 µM in test [3]; 1.93 µM in test [4]; 0.332 µM in test [5]; 1.43 µM in test [6]. Further, the GI50 in test [7] is 1.74 µM; in test [8], 1.7 µM; in test [9], 1.9 µM; in test [10], 1.78 µM. The TGI is 2.67 µM in test [1]; 2.11 µM in [2]; 10.8 µM in test [3]; 4 µM in [4]; 1.16 µM in test [5]; 3.64 µM in test [6]. Moreover, the TGI was 3.39 µM in [7], 3.32 µM in test [8], 4.07 µM in test [9] and greater than 100 µM in test [10].
Take `COc1ccc(/C=C(\C#N)n2nnc3ccccc32)cc1`: the GI50 in [1] is 0.486 µM; in test [2], 0.525 µM; in [3], 0.0604 µM; in [4], 0.463 µM; in test [5], 0.385 µM; in [6] it was 0.252 µM. Besides, the GI50 in [7] is 0.437 µM; in test [8], 1.65 µM; in test [9], 0.282 µM; in test [10], 0.0555 µM. Further, the TGI in test [1] came to 25.8 µM; in test [2] it was 3.47 µM; in [3] it was 28.2 µM; in [5] it was 24.6 µM; in test [6], 0.869 µM; in [7], 51.1 µM. For the same compound, the values for the TGI in [8], in [9] and in [10] were greater than 86.9 µM, 2.89 µM and greater than 39.6 µM, respectively.
Consider `CN(C)CCCN1c2ccccc2C(C)(C)c2ccccc21`, for which the TGI is 31.5 µM in test [1]; 27.8 µM in test [2]; 31.8 µM in test [3]; 27.2 µM in test [4]; 28.5 µM in test [5]; 28.4 µM in [6]. Moreover, the TGI in [7] came out at 30.1 µM; in test [8], 31.4 µM; in [9], 26.2 µM; in [10], 27.1 µM.
Consider `Cc1ccc2c(c1)C(C)Cc1c(Cl)ncnc1N2C` (centres undefined), for which the GI50 was 3.74 µM in test [1]; 2.55 µM in [2]; 2.73 µM in [3]; 5.05 µM in test [4]; 3.56 µM in test [5]; 3.85 µM in [6]. Further, the GI50 in [7] is 3.03 µM; in test [8] it was 0.905 µM; in test [9], 1.86 µM; in test [10], 3.53 µM. Further, the TGI was determined as 22.2 µM in [1]; 6.84 µM in test [2]; 23.1 µM in test [3]; 49.3 µM in [4]; 17.2 µM in [5]; 19 µM in [6]. Besides, the TGI in test [7] is 8.1 µM; in [8], 48.7 µM; in test [9], 3.41 µM; in [10], greater than 100 µM.
Turning to `COC(=O)C1=C(C(=O)OC)SC(=C(Cl)C(=S)Nc2ccccc2O)S1`, the GI50 in [1] is 0.354 µM; in test [2] it was 10.6 µM; in test [3], 14.1 µM; in [4], 11.6 µM; in [5], 33 µM; in test [6], 15.9 µM. Also, the GI50 in test [7] is 10.3 µM; in test [8], greater than 50 µM; in test [9], 19.1 µM; in test [10] it was 26.1 µM. The TGI in test [1] was 11.2 µM; in test [2] it was 25.9 µM; in test [3] it was 35.1 µM; in test [4] it was 31.5 µM; in test [5], greater than 50 µM; in test [6], 39 µM. Moreover, the TGI in test [7] is 22.2 µM; in test [8] it was greater than 50 µM; in test [9], greater than 50 µM; in [10], greater than 50 µM.
In the case of `Cc1cc(Cc2cc(C)cc(C(C)(C)C)c2O)c(O)c(Cc2cc(C)cc(C(C)(C)C)c2O)c1`, the TGI in [1] is 7.94 µM; in [2], 4.25 µM; in test [3] it was 12.6 µM; in [4], 14.2 µM; in test [5] it was greater than 20.4 µM; in test [6], 6.54 µM. Further, the TGI is 6.7 µM in test [7], 16.7 µM in [8], 2.62 µM in [9] and greater than 28.6 µM in test [10].
On to `CN(C)CC1C(=O)O[C@H]2[C@H]1CC/C(COC(=O)c1cc3ccccc3[nH]1)=C\CC[C@@]1(C)O[C@@H]21` (some centres undefined), for which the GI50 in [1] is 2.72 µM; in test [2], 2 µM; in [3], 1.76 µM; in test [4] it was 2.37 µM; in [5], 0.354 µM; in test [6], 2.2 µM. Further, the GI50 in test [7] is 1.98 µM; in [8], 2.17 µM; in test [9] it was 1.84 µM; in test [10], 1.55 µM. Further, the TGI is 7.98 µM in test [1]; 4.63 µM in [2]; 4.6 µM in test [3]; 6.15 µM in [4]; 2.11 µM in test [5]; 5.86 µM in test [6]. The TGI turned out to be 5.51 µM in [7], 5.24 µM in test [8], 3.57 µM in test [9] and 9.89 µM in test [10].
